Key:
[1] = target: T1, human 20S proteasome (Homo sapiens, UniProt P28074); experiment: 20S Proteasome Assay; assay type: biochemical; details: Ac-WLA-AMC substrate 15 μM, human PA28 activator 12 nM, human 20S proteasome 0.25 nM, 37° C., pH7.4
T1 construct: purchased Boston Biochem

[2] = target: human 20S proteasome (Homo sapiens, UniProt P28072+P28074+Q99436); experiment: Proteasome Inhibition Kinetics (enzyme progress curves); assay type: biochemical; details: human 20S proteasome 0.25 nM activated with 0.01% SDS, 37° C.; half-life determined from koff; read-out: dissociation half-life t1/2
Description: Enzyme kinetic parameters including dissociation constants and half lives were determined by analysis of enzyme progress curves as follows:
Proteasome inactivation measurements were obtained by monitoring individual progress curves for the hydrolysis of the site-specific fluorogenic 7-amido-4-methylcoumarin (AMC)-labeled peptide substrates (β5, Suc-LLVY-AMC; β2, Z-VLR-AMC, and β1, Z-LLE-AMC) at different inhibitor concentrations. Cleavage of the fluorogenic peptide was continuously monitored as a change in the fluorescence emission at 460 nm (λex=360 nm) and plotted as a function of time. All assays were performed in cuvettes with 2 mL of 50 mM HEPES (pH 7.5), 0.5 mM EDTA, at 37±0.2° C., and with continuous stirring. The concentrations of substrates varied from 10 to 25 μM (<½ KM). The concentration of human 20S proteasome was 0.25 nM and was activated with 0.01% SDS. The rate constant, kobs, describing the conversion from the initial velocity to the steady state velocity, were estimated by nonlinear least-squares regression analysis of the individual progress curves using the equation for time-dependent or slow-binding inhibition:
[formula] where F is fluorescence, vi and vs are the initial and steady state velocities of the reaction in the presence of inhibitor, and t is time. A plot of kobs as a function of [I] was made to obtain kon from the slope of the linear fit of the data. The apparent dissociation constant, K^appii, was determined by nonlinear least-fit of the fractional velocity, vs/vo, as a function of [I], were vs is the steady state value obtained from the time-dependent or slow-binding equation and vo is the initial velocity in the absence of inhibitor: […]
The dissociation constant Ki, was calculated from the apparent Ki using the following expression: […]
The off rate, koff, was mathematically calculated from the above determined parameters using the following relationship:
The half-life was then determined from the koff value using the following relationship: […]

Row | SMILES | IC50 [1] | residence time [2]
1 | O=C(N[C@@H](CC1CCC1)B(O)O)[C@H](Cc1ccccc1)NS(=O)(=O)c1ccc2ccccc2c1 [Compound 1, [(1R)-2-cyclobutyl-1-({(2S)-2-[(2-naphthylsulfonyl)amino]-3-phenylpropanoyl}amino)ethyl]boronic acid] | < 50 nM | < 10 min
2 | O=C(N[C@@H](Cc1ccccc1)C(=O)N[C@@H](CC1CCC1)B(O)O)c1cccnc1Oc1ccccc1 [Compound 2, {(1R)-2-cyclobutyl-1-[((2S)-2-{[(2-phenoxypyridin-3-yl)carbonyl]amino}-3-phenylpropanoyl)amino]ethyl}boronic acid] | < 50 nM | 10 to 60 min
3 | O=C(N[C@@H](Cc1ccccc1)C(=O)N[C@@H](CC1CCC1)B(O)O)c1cc(Cl)ccc1Cl [Compound 6, [(1R)-2-cyclobutyl-1-({(2S)-2-[(2,5-dichlorobenzoyl)amino]-3-phenylpropanoyl}amino)ethyl]boronic acid] | < 50 nM | 10 to 60 min
4 | O=C(N[C@@H](Cc1ccccc1)C(=O)N[C@@H](CC1CCC1)B(O)O)c1cnccn1 [Compound 17, [(1R)-2-cyclobutyl-1-({(2S)-3-phenyl-2-[(pyrazin-2-ylcarbonyl)amino]propanoyl}amino)ethyl]boronic acid] | < 50 nM | 10 to 60 min
5 | CN1CCOc2ccc(S(=O)(=O)N[C@@H](Cc3ccccc3)C(=O)N[C@@H](CC3CCC3)B(O)O)cc21 [Compound 20, {(1R)-2-cyclobutyl-1-[((2S)-2-{[(4-methyl-3,4-dihydro-2H-1,4-benzoxazin-6-yl)sulfonyl]amino}-3-phenylpropanoyl)amino]ethyl}boronic acid] | < 50 nM | < 10 min
6 | O=C(N[C@@H](CC1CCC1)B(O)O)[C@H](Cc1ccccc1)NS(=O)(=O)c1cc(Cl)ccc1Cl [Compound 35, {(1R)-2-cyclobutyl-1-[((2S)-2-{[(2,5-dichlorophenyl)sulfonyl]amino}-3-phenylpropanoyl)amino]ethyl}boronic acid] | < 50 nM | < 10 min
7 | O=C(N[C@@H](CC1CCC1)B(O)O)[C@H](Cc1ccccc1)NS(=O)(=O)c1ccc(-c2cnco2)cc1 [Compound 36, ((1R)-2-cyclobutyl-1-{[(2S)-2-({[4-(1,3-oxazol-5-yl)phenyl]sulfonyl}amino)-3-phenylpropanoyl]amino}ethyl)boronic acid] | < 50 nM | < 10 min
8 | O=C(N[C@@H](Cc1ccccc1)C(=O)N[C@@H](CC1CCC1)B(O)O)c1ccc(Oc2ccccc2)nc1 [Compound 39, {(1R)-2-cyclobutyl-1-[((2S)-2-{[(6-phenoxypyridin-3-yl)carbonyl]amino}-3-phenylpropanoyl)amino]ethyl}boronic acid] | < 50 nM | 
9 | CN1C(=O)Cc2cc(S(=O)(=O)N[C@@H](Cc3ccccc3)C(=O)N[C@@H](CC3CCC3)B(O)O)ccc21 [Compound 40, {(1R)-2-cyclobutyl-1-[((2S)-2-{[(1-methyl-2-oxo-2,3-dihydro-1H-indol-5-yl)sulfonyl]amino}-3-phenylpropanoyl)amino]ethyl}boronic acid] | < 50 nM | 
10 | O=C(N[C@@H](CC1CCC1)B(O)O)[C@H](Cc1ccccc1)NS(=O)(=O)c1ccc(Oc2ccccn2)cc1 [Compound 41, ((1R)-2-cyclobutyl-1-{[(2S)-3-phenyl-2-({[4-(pyridin-2-yloxy)phenyl]sulfonyl}amino)propanoyl]amino}ethyl)boronic acid] | < 50 nM | < 10 min
11 | C[C@H](O)[C@H](NS(=O)(=O)c1ccc(Oc2ccccc2)nc1)C(=O)N[C@@H](CC1CCC1)B(O)O [Compound 42, {(1R)-2-cyclobutyl-1-[((2S)-3-hydroxy-2-{[(6-phenoxypyridin-3-yl)sulfonyl]amino}butanoyl)amino]ethyl}boronic acid] | 50 to 150 nM | 
12 | O=C(N[C@@H](CC1CCC1)B(O)O)[C@H](Cc1ccccc1)NS(=O)(=O)c1ccc(Oc2ccncc2)cc1 [Compound 43, ((1R)-2-cyclobutyl-1-{[(2S)-3-phenyl-2-({[4-(pyridin-4-yloxy)phenyl]sulfonyl}amino)propanoyl]amino}ethyl)boronic acid] | < 50 nM | < 10 min
13 | Cc1nc(-c2cccc(S(=O)(=O)N[C@@H](Cc3ccccc3)C(=O)N[C@@H](CC3CCC3)B(O)O)c2)cs1 [Compound 44, ((1R)-2-cyclobutyl-1-{[(2S)-2-({[3-(2-methyl-1,3-thiazol-4-yl)phenyl]sulfonyl}amino)-3-phenylpropanoyl]amino}ethyl)boronic acid] | < 50 nM | 
14 | O=C(N[C@@H](CC1CCC1)B(O)O)[C@H](Cc1ccccc1)NS(=O)(=O)c1ccc(Oc2cccnc2)cc1 [Compound 45, ((1R)-2-cyclobutyl-1-{[(2S)-3-phenyl-2-({[4-(pyridin-3-yl-oxy)phenyl]sulfonyl}amino)propanoyl]amino}ethyl)boronic acid] | < 50 nM | < 10 min
15 | C[C@H](O)[C@H](NS(=O)(=O)c1ccc2c(c1)N(C)CCO2)C(=O)N[C@@H](CC1CCC1)B(O)O [Compound 46, {(1R)-2-cyclobutyl-1-[((2S)-3-hydroxy-2-{[(4-methyl-3,4-dihydro-2H-1,4-benzoxazin-6-yl)sulfonyl]amino}butanoyl)amino]ethyl}boronic acid] | 50 to 150 nM | 
16 | O=C(N[C@@H](CC1CCC1)B(O)O)[C@H](Cc1ccccc1)NS(=O)(=O)c1cccc2cnccc12 [Compound 47, [(1R)-2-cyclobutyl-1-({(2S)-2-[(isoquinolin-5-ylsulfonyl)amino]-3-phenylpropanoyl}amino)ethyl]boronic acid] | 50 to 150 nM | 
17 | O=C(N[C@@H](CC1CCC1)B(O)O)[C@H](Cc1ccccc1)NS(=O)(=O)c1ccc2ncsc2c1 [Compound 48, [(1R)-1-({(2S)-2-[(1,3-benzothiazol-6-ylsulfonyl)amino]-3-phenylpropanoyl}-amino)-2-cyclobutylethyl]boronic acid] | < 50 nM | 
